experiment: HILIC, Waters Atlantis Premier BEH Z-HILIC, 100 × 2.1 mm, 1.7 µm, 40 °C, 0.15 mL/min, estimated dead time 1.5 min; A: water + 20 mM ammonium carbonate + 5 µM medronic acid; B: 10% water + 90% acetonitrile + 2 mM ammonium carbonate + 0.5 µM medronic acid; gradient (min/%B) 0/100 18/55 18.1/20 21.5/20 22/100 23.5/100 25.5/100; details: stereoisomer not certain

Structure (SMILES) | LC retention time
O=C(O)CCC(=O)C(=O)O [2-Oxoglutaric acid] | 8.62 min
O=C(O)CCC(O)C(=O)O (stereo not given) [2-hydroxy glutaric acid] | 9.58 min
Nc1ncnc2c1ncn2C1OC(COP(=O)(O)OP(=O)(O)O)C(O)C1O (stereo not given) [ADP] | 11.9 min
Nc1ncnc2c1ncn2C1OC(COP(=O)(O)O)C(O)C1O (stereo not given) [AMP] | 8.82 min
Nc1ncnc2c1ncn2C1OC(COP(=O)(O)OP(=O)(O)OP(=O)(O)O)C(O)C1O (stereo not given) [ATP] | 14.3 min
CC(=O)SCCNC(=O)CCNC(=O)C(O)C(C)(C)COP(=O)(O)OP(=O)(O)OCC1OC(n2cnc3c(N)ncnc32)C(O)C1OP(=O)(O)O (stereo not given) [Acetyl-CoA] | 9.49 min
Nc1ncnc2c1ncn2C1OC(CO)C(O)C1O (stereo not given) [Adenosine] | 3.65 min
O=C(O)CCCCC1SCC2NC(=O)NC21 (stereo not given) [Biotin] | 4.6 min
C[N+](C)(C)CC(O)CC(=O)[O-] (stereo not given) [Carnitine] | 9.95 min
O=C(O)CC(O)(CC(=O)O)C(=O)O [Citric acid] | 14.7 min
CC(C)(COP(=O)(O)OP(=O)(O)OCC1OC(n2cnc3c(N)ncnc32)C(O)C1OP(=O)(O)O)C(O)C(=O)NCCC(=O)NCCS (stereo not given) [CoenzymeA] | 11.9 min
Cc1cc2nc3c(=O)[nH]c(=O)nc-3n(CC(O)C(O)C(O)COP(=O)(O)OP(=O)(O)OCC3OC(n4cnc5c(N)ncnc54)C(O)C3O)c2cc1C (stereo not given) [FAD] | 7.27 min
O=C(CO)C(O)C(O)C(O)COP(=O)(O)O (stereo not given) [Fructose 6-phosphate] | 12 min
O=P(O)(O)OCC1OC(O)(COP(=O)(O)O)C(O)C1O (stereo not given) [Fructose-1,6-bisphosphate] | 16.6 min
Nc1nc2c(ncn2C2OC(COP(=O)(O)OP(=O)(O)OP(=O)(O)O)C(O)C2O)c(=O)[nH]1 (stereo not given) [GTP] | 17.1 min
O=P(O)(O)OCC1OC(O)C(O)C(O)C1O (stereo not given) [Glucose-6-phosphate] | 12.6 min
NC(CCC(=O)O)C(=O)O (stereo not given) [Glutamic acid] | 9.29 min

Second part, the molecule after the results:

LC retention time | Structure (SMILES)
10.4 min | NC(=O)CCC(N)C(=O)O (stereo not given) [Glutamine]
9.84 min | O=P(O)(O)OCC(O)CO (stereo not given) [Glycerol-3-phosphate]
6.94 min | OCC1OC(O)C(O)C(O)C1O (stereo not given) [Hexose]
14.5 min | O=C(O)CC(C(=O)O)C(O)C(=O)O (stereo not given) [Isocitric acid]
6.3 min | CCC(C)C(N)C(=O)O (stereo not given) [Isoleucine]
3.36 min | CC(O)C(=O)O (stereo not given) [Lactic Acid]
6.08 min | CC(C)CC(N)C(=O)O (stereo not given) [Leucine]
7.99 min | NC(=O)C1=CN(C2OC(COP(=O)(O)OP(=O)(O)OCC3OC(n4cnc5c(N)ncnc54)C(O)C3O)C(O)C2O)C=CC1 (stereo not given) [NADH]
14.7 min | NC(=O)C1=CN(C2OC(COP(=O)(O)OP(=O)(O)OCC3OC(n4cnc5c(N)ncnc54)C(OP(=O)(O)O)C3O)C(O)C2O)C=CC1 (stereo not given) [NADPH]
13.8 min | NC(=O)c1ccc[n+](C2OC(COP(=O)(O)OP(=O)(O)OCC3OC(n4cnc5c(N)ncnc54)C(OP(=O)(O)O)C3O)C(O)C2O)c1 (stereo not given) [NADP]
10.5 min | NC(=O)c1ccc[n+](C2OC(COP(=O)(O)OP(=O)(O)OCC3OC(n4cnc5c(N)ncnc54)C(O)C3O)C(O)C2O)c1 (stereo not given) [NAD]
14.4 min | C=C(OP(=O)(O)O)C(=O)O [PEP]
13.3 min | O=C(O)C(CO)OP(=O)(O)O (stereo not given) [Phosphoglyceric acid A]
9.39 min | O=C(O)CCC(=O)O [Succinic Acid]
9.84 min | O=C(CO)COP(=O)(O)O [Triose phosphate]
9.63 min | CC(=O)NC1C(OP(=O)(O)OP(=O)(O)OCC2OC(n3ccc(=O)[nH]c3=O)C(O)C2O)OC(CO)C(O)C1O (stereo not given) [UDP-GlcNAc]
6.33 min | CCC(=O)OC(CC(=O)[O-])C[N+](C)(C)C (stereo not given) [carnitine-C3]
4.02 min | O=C1CC(C(=O)O)NC(=O)N1 (stereo not given) [dihydroorotic acid]

Reference: the RepoRT retention time repository
